Reference: PMC10606064, “2-Aminothiazole-Flavonoid Hybrid Derivatives Binding to Tau Protein and Responsible for Antitumor Activity in Glioblastoma” (International Journal of Molecular Sciences, 2023)

What was measured:
[1] = molecular target: T1, Tau protein (full-length human Tau, hTau40) (Homo sapiens, UniProt P10636); assay: Tau intrinsic fluorescence quenching, modified Stern–Volmer binding parameters; conditions: 5 µM Tau, buffer B pH 6.8, mean ± SD; for Kd: read-out: Equilibrium Binding Constants to Tau, KD
T1 construct: The full-length human Tau (hTau40) was expressed in a transformed E. coli BL21 (DE3) strain; made in house; host or cells: E. coli BL21 (DE3)
Description: Fluorescence measurements were performed with a Horiba Jobin Yvon FluoroMax-3 spectrofluorometer. […] For experiments, the excitation wavelength was fixed at 275 nm, and the emission spectra were recorded between 280 nm and 500 nm at room temperature. The inner filter effects were corrected according to Lakowicz as follows:F = Fobs × exp{(Aem + Aex)/2}(2) where Fobs and F are the observed and corrected fluorescence values at the emission wavelength of 303 nm. Aex and Aem are the absorptions at the excitation and emission wavelengths, respectively, calculated with A = ε.l.C, in which ε is the extinction coefficient of Tau, l is the path length of cuvette, and C is Tau concentration.
The total fluorescence in the absence of quencher (F0) is given by:F0 = F0a + F0b(4) where 0 refers to the fluorescence intensity in the absence of quencher.
In the presence of quencher, we defined fa as the fraction of the initial fluorescence of Tau accessible to compounds:fa = F0a/(F0a + F0b)(5)
Therefore, the intensity of the accessible fraction (fa) is decreased according to the Stern–Volmer equation, whereas the buried fraction is not quenched, as given by:F = {F0a/(1 + K.[Q])} + F0b(6)
Then, subtraction of Equations (6) and (4) yields:ΔF = F0 − F = F0a × {K.[Q]/(1 + K.[Q])}(7)
At last, inversion of Equation (7) followed by division into Equation (4) yields:F0/ΔF = {1/(fa.K.[Q])} + 1/fa(8)
We applied this modified form of the Stern–Volmer equation to graphically determine the values of fa and K. For our experiments, we plotted F0/ΔF against 1/[Q], then we determined the fa value at the point of intersection with the y-axis, while the slope represented (faK)^−1.

U138 glioblastoma cells = assay: MTT cell viability assay, U138; assay type: cell-based; conditions: Homo sapiens, U138, 72 h, mean ± SEM, read-out: IC50 (metabolic activity)
Description: (§1) Cells harvested from sub-confluent monolayers were seeded at 15,000 cells per mL in a 96-well microtiter plate (Cambridge Technology, Labège, France) and cultured for 24 h under standard conditions. Standard medium was then replaced by fresh medium containing no drugs or compounds at different concentrations. The surviving cells were quantified after 72 h by the MTT assay, according to the manufacturer’s instructions. Briefly, 20 µL of 3-(4,5-diMethylThiazol-2-yl)-2,5diphenyl Tetrazolium bromide (MTT) solution at 5 mg.mL^−1 was added to cells for 3 h at 37 °C. The supernatant was discarded and replaced by 100 µL of dimethyl sulfoxide to dissolve formazan crystals. The absorbance was then read at 600 nm by spectrophotometry. For all concentrations of a given compound, cell viability was expressed as the percentage of the ratio between the mean absorbance of treated cells and the mean absorbance of untreated cells. Three independent experiments were performed, and the data were expressed as percentage of survival (using the untreated cells as 100%) and subjected to statistical analysis (n = 3). The IC50 was calculated using the Chou and Talalay method.

U87 glioblastoma cells = assay: MTT cell viability assay, U87; assay type: cell-based, human; conditions: Homo sapiens; U87, 72 h, MTT; mean ± SEM; read-out: IC50 (metabolic activity)
Description: as §1

[2] = molecular target: T2, full-length human Tau (hTau40) (Homo sapiens, UniProt P10636); assay: Tau oligomerization inhibition assay (heparin-induced, thioflavin S fluorescence); assay type: biochemical; conditions: 2 µM Tau, heparin-induced, ThS; buffer A pH 6.9; 25 °C per table footnote (37 °C in method); mean ± SD; read-out: Inhibition of Aggregation IC50
T2 construct: The full-length human Tau (hTau40) was expressed in a transformed E. coli BL21 (DE3) strain; made in house; host or cells: E. coli BL21 (DE3)
Description: Tau oligomerization inhibition assay was performed at 37 °C in 96-well plates by monitoring thioflavin-S fluorescence at 520 nm after excitation at 440 nm using a microplate reader (POLARstar Omega system, BMG Labtech, Paris, France). The Tau oligomerization process was induced by heparin. […] The plates were shaken at 200 rpm for 10 s before each measurement. The real value of fluorescence at the plateau was determined using SciDAVis v1.23 software. Data were fitted to the SciDAVis built-in ExpGrowth equation by means of nonlinear least-squares regression analysis. Y = Y0 + A × exp(x/t)(1)
The unscaled Levenberg–Marquardt algorithm was used, and initial values were given to Y0, A, and t. The final Y0 value of the model corresponds to the plateau value. The plateau values were then used to calculate the Tau oligomerization inhibition percentage. The IC50 for each compound was calculated from the scatter plot of Tau oligomerization inhibition (in percentage) as a function of log10 of compound concentration. The IC50 value (in µM) thus corresponds to ten raised to the power of […].

T98G glioblastoma cells = assay: MTT cell viability assay, T98G; assay type: cell-based; conditions: Homo sapiens, 72 h, mean ± SEM, read-out: IC50 (metabolic activity)
Description: as §1

U251 glioblastoma cells = assay: MTT cell viability assay, U251; assay type: cell-based; conditions: Homo sapiens, U-251, U251, 72 h, mean ± SEM, read-out: IC50 (metabolic activity)
Description: as §1

U87 shTau cells = assay: MTT cell viability assay, U87 shTau (Tau-depleted); assay type: cell-based; conditions: Homo sapiens, 72 h, mean ± SEM, read-out: IC50 (metabolic activity)
Description: (§2) All cell lines were purchased from ATCC, Gaithersburg, MD, USA. Cells from human glioblastoma (clones U87 wt, HTB-14; U118, HTB-15; U251, HTB-12; U138, HTB-16), neuroblastoma (clone SK-N-SH, HTB-11), and colorectal adenocarcinoma (clone Caco-2, HTB-37) were routinely grown at 37 °C in a humidified atmosphere containing 5% CO2. Cells were maintained by regular passages in complete media supplemented with 10% FBS, 2mM of L-glutamine, 100 U/mL of penicillin, and 50 U/mL of streptomycin (Invitrogen, Paris, France). For U87 wt, U251, U138, and SK-N-SH cells, the medium consisted of EMEM (Lonza, Levallois Perret, France). U118 and Caco-2 lines were maintained in DMEM. The U87 wt-derived lines, U87 shCTRL, and U87 shTau2 cells were continuously maintained in complete EMEM medium supplemented with 0.4 µg/mL of puromycin. The shRNA sequences and the protocol of clone selection and Tau downregulation were previously described in [20]. For Tau expression rescue, the U87 shCTRL and U87 shTau cells were seeded two days prior to experiments at 4.10^5 cells per 60 mm dish in 6 mL of complete medium. Cells were transfected using LipofectAmine 2000 according to Invitrogen instructions and 8 µg EGFP-free plasmid constructs (for U87 shCTRL) and EGFP-hTau40 plasmid constructs (for U87 shTau) were used in total. One day prior to experiments, all cells were plated in a 96-well microtiter plate to prepare for viability assays. Cells were free from mycoplasma as determined by mycoalert tests (Lonza).
as §1

[3] = test system: SK-N-SH neuroblastoma cells; assay: MTT cell viability assay, SK-N-SH; assay type: cell-based; conditions: Homo sapiens, 72 h, mean ± SEM, read-out: IC50 (metabolic activity)
Description: as §1

U87 shCTRL cells = assay: MTT cell viability assay, U87 shCTRL (expressing Tau); assay type: cell-based, human; conditions: Homo sapiens; U87 shCTRL, 72 h, MTT; mean ± SEM; read-out: IC50 (metabolic activity)
Description: as §2, §1

[4] = test system: Caco-2 colon adenocarcinoma cells; assay: MTT cell viability assay, Caco-2; assay type: cell-based; conditions: Homo sapiens, Caco-2 (not expressing Tau), 72 h, mean ± SEM, read-out: IC50 (metabolic activity)
Description: as §1

T1 sequence (P10636 1-441 isoform P10636-8): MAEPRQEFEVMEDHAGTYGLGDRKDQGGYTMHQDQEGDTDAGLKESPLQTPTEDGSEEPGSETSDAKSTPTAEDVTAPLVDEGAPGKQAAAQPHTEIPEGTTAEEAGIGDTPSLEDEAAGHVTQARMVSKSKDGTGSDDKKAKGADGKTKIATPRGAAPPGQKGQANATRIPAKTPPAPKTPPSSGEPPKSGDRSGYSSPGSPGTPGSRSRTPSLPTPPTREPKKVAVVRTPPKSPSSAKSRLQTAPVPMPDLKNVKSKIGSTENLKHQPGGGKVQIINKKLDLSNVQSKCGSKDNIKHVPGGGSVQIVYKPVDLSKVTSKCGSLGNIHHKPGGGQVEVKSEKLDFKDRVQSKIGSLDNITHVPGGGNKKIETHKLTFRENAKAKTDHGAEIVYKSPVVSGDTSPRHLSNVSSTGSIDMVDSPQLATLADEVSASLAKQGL
T2 sequence (P10636 1-441 isoform P10636-8): as above

Equilibrium Binding Constants to Tau, fA (Tyr accessible fraction) [1]	Kd [1] [µM]	IC50 (U138 glioblastoma cells) [µM]	IC50 (U87 glioblastoma cells) [µM]	IC50 [2] [µM]	IC50 (T98G glioblastoma cells) [µM]	IC50 (U251 glioblastoma cells) [nM]	IC50 (U87 shTau cells) [nM]	IC50 [3] [µM]	IC50 (U87 shCTRL cells) [nM]	IC50 [4] [µM]	Structure (SMILES)
0.21 ± 0.02	5.9 ± 1.6	> 100	> 100	17 ± 2.9	> 100	> 100000	–	–	–	–	Nc1nc2ccc3oc(-c4cccc(F)c4)cc(=O)c3c2s1 [Compound 7]
0.21 ± 0.02	5.4 ± 2.5	1.5 ± 0.3	7.9 ± 3.4	9 ± 0.6	9.2 ± 1.2	1700 ± 100	–	–	–	–	COc1c(-c2ccccc2F)oc2ccc3nc(N)sc3c2c1=O [Compound 13]
0.14 ± 0.05	3.5 ± 1	> 100	5.1 ± 0.8	> 100	> 100	> 100000	> 100000	> 100	> 100000	> 100	Nc1nc2ccc3nc(-c4ccc(Oc5ccccc5)cc4)[nH]c(=O)c3c2s1 [Compound 17]
0.19 ± 0.05	4.7 ± 1.3	–	4.1 ± 3.4	12.4 ± 1.2	1.7 ± 0.9	–	500 ± 300	–	600 ± 100	–	Nc1nc2ccc3oc(-c4ccccc4)c(O)c(=O)c3c2s1 [Compound 12]
0.20 ± 0.03	5 ± 2.5	> 100	> 100	10.8 ± 2.2	> 100	> 100000	> 100000	–	> 100000	–	Nc1nc2ccc3nc(-c4cccc(Oc5ccccc5)c4)[nH]c(=O)c3c2s1 [Compound 16]
–	–	1 ± 0.4	2.6 ± 1.3	9 ± 0.5	2.9 ± 0.7	1300 ± 400	–	–	–	–	Nc1nc2ccc3oc(-c4ccccc4F)cc(=O)c3c2s1 [Compound 6]
0.16 ± 0.01	5.2 ± 1.8	5 ± 1.1	5.1 ± 1.8	> 100	3.5 ± 1	1900 ± 200	400 ± 400	–	300 ± 200	–	Nc1nc2ccc3oc(-c4ccc(F)cc4)c(O)c(=O)c3c2s1 [Compound 11]
–	6.3 ± 1.2	0.9 ± 0.4	2.6 ± 1.5	9.9 ± 1.1	1.5 ± 0.7	1000 ± 400	1400 ± 600	–	1200 ± 400	–	Nc1nc2ccc3oc(-c4cccc(F)c4)c(O)c(=O)c3c2s1 [Compound 10]
0.12 ± 0.01	2.4 ± 0.8	> 100	> 100	9.7 ± 0.2	> 100	> 100000	> 100000	> 100	> 100000	> 100	CCOC(=O)c1ccc(-c2cc(=O)c3c(ccc4nc(N)sc43)o2)cc1 [Compound 4]
–	–	> 100	> 100	> 100	> 100	> 100000	> 100000	> 100	> 100000	> 100	Nc1nc2ccc3oc(-c4ccccc4)cc(=O)c3c2s1 [Compound 3]
–	–	10.2 ± 5	> 100	15 ± 1.2	> 100	3600 ± 1100	–	–	–	–	Nc1nc2ccc3oc(-c4ccc(F)cc4)cc(=O)c3c2s1 [Compound 8]
0.23 ± 0.03	4.1 ± 1	4.1 ± 1.6	8.8 ± 3.3	6.5 ± 0.1	11.3 ± 4.1	1900 ± 200	–	–	–	–	COc1c(-c2ccc(F)cc2)oc2ccc3nc(N)sc3c2c1=O [Compound 15]
